Laboratory results: patent publication US20080014186A1, “Hla-A24 or Hla-A2 Binding Peptides of Parathyroid Hormone-Related Protein” (GREEN PEPTIDE CO., LTD., priority 2004, published 2008)

How the values were obtained:
[1] = system: PBMCs of HLA-A2^+ healthy donors and prostate cancer patients; test: Assay for peptide-specific CTLs in PBMCs (IFN-γ ELISA, peptide-pulsed T2 cells); type: cell-based, human; settings: for INF-γ production: T2 cells
[2] = system: IgG in plasma of HLA-A2^+ healthy donors and prostate cancer patients; test: Peptide-specific IgG in plasma by ELISA (HLA-A2-binding PTHrP peptides); design: species or system human; settings: for IgG reactive to the peptide in plasma (difference of OD): 1:100-diluted plasma
Method: Peptide-specific IgG levels in the plasma were measured by ELISA, as previously reported. In brief, peptide (20 μg/well)-immobilized plates were blocked with Block Ace (Yukijirushi, Tokyo, Japan) and washed with 0.05% Tween20-PBS, after which 100 μl/well of plasma sample diluted with 0.05% Tween20-Block Ace was added to the plate. After 2 hours incubation at 37° C., the plates were washed and further incubated for 2 hours with a 1:1000-diluted rabbit anti-human IgG (γ-chain-specific) (DAKO, Glostrup, Denmark). The plates were washed, and then 100 μl of 1:100-diluted goat anti-rabbit IgG-conjugated horseradish peroxidase (EnVision, DAKO) was added to each well, and the plates were then incubated at room temperature for 40 min. After the plates were washed once, 100 μl/well of tetramethyl benzidine substrate solution (KPL, Guildford, UK) was added, and the reaction was stopped by the addition of 1 M phosphoric acid. The values are shown as optical density (OD) units/ml, and responses to the HIV peptide were subtracted. IgG reactive to a corresponding PTHrP peptide was judged to be positive when the difference of the OD in 1:100-diluted plasma exceeded 0.05. The results that IgG reactive to either the PTHrP102-111 or the […] peptide was detected in 8 of 10 healthy donors and in 7 of 10 prostate cancers are shown in Table 2 hereinafter.
In a similar way to Example 3, it was examined whether IgGs reactive to peptides of PTHrP 42-51 and PTHrP 59-67 could be detected in the plasma of 10 healthy donors and 10 cancer patients. The cut-off value at 1:100-diluted plasma was ODO.054.

IgG reactive to the peptide in plasma (difference of OD) ([2]; HLA-A2^+ healthy donor #2): 0.102 OD
IgG reactive to the peptide in plasma (difference of OD) ([2]; HLA-A2^+ healthy donor #4): 0.155 OD
IgG reactive to the peptide in plasma (difference of OD) ([2]; HLA-A2^+ healthy donor #8): 0.121 OD
Total (IgG-positive donors / donors tested) ([2]; HLA-A2^+ healthy donors): 3/10
IgG reactive to the peptide in plasma (difference of OD) ([2]; HLA-A2^+ prostate cancer patient #2): 0.078 OD
IgG reactive to the peptide in plasma (difference of OD) ([2]; HLA-A2^+ prostate cancer patient #6): 0.0895 OD
IgG reactive to the peptide in plasma (difference of OD) ([2]; HLA-A2^+ prostate cancer patient #7): 0.0795 OD
Total (IgG-positive patients / patients tested) ([2]; HLA-A2^+ prostate cancer patients): 3/10
Sequence: LLHDKGKSI [PTHrP 43-51]
INF-γ production ([1]; HLA-A2^+ healthy donor #1 (A0201)): 17 pg/mL
INF-γ production ([1]; HLA-A2^+ healthy donor #2 (A0201)): 21 pg/mL
INF-γ production ([1]; HLA-A2^+ healthy donor #3 (A0201)): 23 pg/mL
INF-γ production ([1]; HLA-A2^+ healthy donor #4 (A0201)): 27 pg/mL
INF-γ production ([1]; HLA-A2^+ healthy donor #5 (A0206)): 0 pg/mL
INF-γ production ([1]; HLA-A2^+ healthy donor #6 (A0206)): 0 pg/mL
INF-γ production ([1]; HLA-A2^+ healthy donor #7 (A0206)): 0 pg/mL
INF-γ production ([1]; HLA-A2^+ healthy donor #8 (A0206)): 0 pg/mL
INF-γ production ([1]; HLA-A2^+ healthy donor #9 (A0206)): 0 pg/mL
INF-γ production ([1]; HLA-A2^+ healthy donor #10 (A0207)): 0 pg/mL
Total (donors with significant peptide-specific IFN-γ production / donors tested) ([1]; HLA-A2^+ healthy donors, p < 0.05): 0/10
INF-γ production ([1]; HLA-A2^+ prostate cancer patient #1 (A0206)): 40 pg/mL
INF-γ production ([1]; HLA-A2^+ prostate cancer patient #2 (A0210)): 56 pg/mL
INF-γ production ([1]; HLA-A2^+ prostate cancer patient #3 (A0210)): 185 pg/mL
INF-γ production ([1]; HLA-A2^+ prostate cancer patient #4 (A0206)): 0 pg/mL
INF-γ production ([1]; HLA-A2^+ prostate cancer patient #5 (A0206)): 39 pg/mL
INF-γ production ([1]; HLA-A2^+ prostate cancer patient #6 (A0207)): 51 pg/mL
INF-γ production ([1]; HLA-A2^+ prostate cancer patient #7 (A0206)): 0 pg/mL
INF-γ production ([1]; HLA-A2^+ prostate cancer patient #8 (A0206)): 23 pg/mL
INF-γ production ([1]; HLA-A2^+ prostate cancer patient #9 (A0201)): 14 pg/mL
INF-γ production ([1]; HLA-A2^+ prostate cancer patient #10 (A0201)): 0 pg/mL
Total (patients with significant peptide-specific IFN-γ production / patients tested) ([1]; HLA-A2^+ prostate cancer patients, p < 0.05): 1/10
IgG reactive to the peptide in plasma (difference of OD) ([2]; HLA-A2^+ healthy donor #1): — (IgG reactive to a corresponding peptide was judged to be positive when a difference of OD in a 1:100-diluted plasma was more than 0.054.)
IgG reactive to the peptide in plasma (difference of OD) ([2]; HLA-A2^+ healthy donor #3): — (IgG reactive to a corresponding peptide was judged to be positive when a difference of OD in a 1:100-diluted plasma was more than 0.054.)
IgG reactive to the peptide in plasma (difference of OD) ([2]; HLA-A2^+ healthy donor #5): — (IgG reactive to a corresponding peptide was judged to be positive when a difference of OD in a 1:100-diluted plasma was more than 0.054.)
IgG reactive to the peptide in plasma (difference of OD) ([2]; HLA-A2^+ healthy donor #6): — (IgG reactive to a corresponding peptide was judged to be positive when a difference of OD in a 1:100-diluted plasma was more than 0.054.)
IgG reactive to the peptide in plasma (difference of OD) ([2]; HLA-A2^+ healthy donor #7): — (IgG reactive to a corresponding peptide was judged to be positive when a difference of OD in a 1:100-diluted plasma was more than 0.054.)
IgG reactive to the peptide in plasma (difference of OD) ([2]; HLA-A2^+ healthy donor #9): — (IgG reactive to a corresponding peptide was judged to be positive when a difference of OD in a 1:100-diluted plasma was more than 0.054.)
IgG reactive to the peptide in plasma (difference of OD) ([2]; HLA-A2^+ healthy donor #10): — (IgG reactive to a corresponding peptide was judged to be positive when a difference of OD in a 1:100-diluted plasma was more than 0.054.)
IgG reactive to the peptide in plasma (difference of OD) ([2]; HLA-A2^+ prostate cancer patient #1): — (IgG reactive to a corresponding peptide was judged to be positive when a difference of OD in a 1:100-diluted plasma was more than 0.054.)
IgG reactive to the peptide in plasma (difference of OD) ([2]; HLA-A2^+ prostate cancer patient #3): — (IgG reactive to a corresponding peptide was judged to be positive when a difference of OD in a 1:100-diluted plasma was more than 0.054.)
IgG reactive to the peptide in plasma (difference of OD) ([2]; HLA-A2^+ prostate cancer patient #4): — (IgG reactive to a corresponding peptide was judged to be positive when a difference of OD in a 1:100-diluted plasma was more than 0.054.)
IgG reactive to the peptide in plasma (difference of OD) ([2]; HLA-A2^+ prostate cancer patient #5): — (IgG reactive to a corresponding peptide was judged to be positive when a difference of OD in a 1:100-diluted plasma was more than 0.054.)
IgG reactive to the peptide in plasma (difference of OD) ([2]; HLA-A2^+ prostate cancer patient #8): — (IgG reactive to a corresponding peptide was judged to be positive when a difference of OD in a 1:100-diluted plasma was more than 0.054.)
IgG reactive to the peptide in plasma (difference of OD) ([2]; HLA-A2^+ prostate cancer patient #9): — (IgG reactive to a corresponding peptide was judged to be positive when a difference of OD in a 1:100-diluted plasma was more than 0.054.)
IgG reactive to the peptide in plasma (difference of OD) ([2]; HLA-A2^+ prostate cancer patient #10): — (IgG reactive to a corresponding peptide was judged to be positive when a difference of OD in a 1:100-diluted plasma was more than 0.054.)
